{
  "source": "patent US8216580B2",
  "about": "“Sulfatases and methods of use thereof” (The Regents of the University of California, priority 2000, dated 2012)",
  "key": {"[1]": {"tested_on": "chick chorioallantoic membrane (CAM)", "assay": "Chick chorioallantoic membrane (CAM) angiogenesis assay", "assay_type": "in vivo", "conditions": "5×10^6 stably transfected CHO cells on CAM of 9 day embryos, 72 hrs; compared to CHO-Sulf-1 or empty vector clone", "procedure": "Sulf-2 functions as a heparan sulfate degrading enzyme (HSDE) during tumor angiogenesis by mobilizing angiogenic factors from sequestration with HSPGs We employed the chick chorioallantoic membrane (CAM) assay, a standard angiogenesis assay. CHO cells were stably transfected with HSulf-1, HSulf-2, or the empty vector and clones were isolated. Single clones of each type were implanted on the surface of the CAM of 9 day embryos. After 72 hrs, the number of new blood vessel branches was determined under a dissecting scope.\nFIG. 17. Pro-angiogenic activity of HSulf-2. 5×10^6 CHO cells were implanted on the CAM of 9-day chick embryos. The CHO cells were clones that were stably transfected with either the empty vector (clone V1), HSulf-1 (clone 9) or HSulf-2 (clone 18). After 72 hrs of further incubation, the number of blood vessel branches was counted under a dissecting microscope. 6 eggs were treated with each type of CHO cell. Means and standard errors of the means are indicated."}, "Wnt signaling": {"tested_on": "Wnt signaling", "assay": "TCF-luciferase (TOPFlash/FOPFlash) Wnt reporter assay in HEK 293 cells co-cultured with Wnt-expressing 3T3 fibroblasts", "assay_type": "cell-based, human", "conditions": "stably transfected HEK 293 cells co-cultured with Wnt1 or Wnt4 expressing 3T3 fibroblasts", "procedure": "Cells were plated in 24 well plates and transfected with either 0.3 μg TOPFlash or FOPFlash and 0.01 μg Renilla control plasmid (Promega) using Fugene (Roche) according to the manufacturer's procedure. After 48 hours cells were lysed and analyzed utilizing the Dual Luciferase Reporter Assay system (Promega). Luciferase activity was normalized to control Renilla activity.\nTo assay HSulf influence on Wnt signaling in HEK 293 cells, HEK 293 cells were transfected with TOP/FOPFlash and Renilla control plasmid. 24 hours later the medium was changed, and Wnt1-transfected 3T3 […] fibroblasts were added. 24 hours later, Luciferase activity was measured, as described above.\nDhoot et al. (2001) supra; Ai et al. (2003) J Cell Biol 162:341-351. In order to determine if the human Sulfs affect Wnt signaling, the effect of HSulf-1 and -2, when overexpressed in a heterologous expression system on Wnt signaling, was analyzed. For this purpose, HEK 293 cells stably transfected with either HSulf-1 (HS1) or HSulf-2 (HS2) were co-cultured with Wnt1 or Wnt4 expressing 3T3 fibroblasts. Wnt activity was measured by utilizing a quantitative TCF-luciferase reporter gene (FOPFlash/TOPFlash system). van de Wetering et al. (1997) Cell 88:789-799."}},
  "data": [
    {"substance": "HSulf-2: Human SULF2, an 870 amino acid sulfatase protein, SEQ ID NO:06; expressed with C-terminal Myc-His tag", "values": [
      {"measurement": "number of new blood vessel branches", "setting": "[1]", "result": "dramatic response"},
      {"measurement": "increase of Wnt activity", "setting": "Wnt signaling", "result": "two-fold"}
    ]}
  ]
}
